PubChem BioAssay AID2060487 (Molecular Pharmacology Branch, DTP, NCI, 2025)

Test system: 997537-175-T-J1-PDC complex spheroid viability
Experiment: Anticancer human tumor 997537-175-T-J1-PDC patient-derived colon adenocarcinoma cell line growth inhibition [GQUAD]
Conditions: for IC50: curve of first compound; for viability, T/C: stronger effect = lower value
In short: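 Multi-cell-type spheroids of tumor cells with HUVEC and mesenchymal stem cells, treated with drug combinations. Concentrations descend in half-log steps from near clinical Cmax, or from 10 microM where Cmax is unknown; viability read-out.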
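Also: spheroids exposed to the agents for 7 days.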
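For viability, T/C in this document: 100% = DMSO vehicle control viability.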

## CCc1c2c(nc3ccc(O)cc13)-c1cc3c(c(=O)n1C2)COC(=O)[C@]3(O)CC + Cc1cnc(CNC(=O)c2c(=O)c3ccc(N4CCCN(C)CC4)nc3n3c2sc2ccccc23)cn1
Second compound 0.0316 µM
  IC50: 8.07 nM
Second compound 0.1 µM
  IC50: 11.8 nM
Second compound 0.316 µM
  IC50: 11.4 nM
Second compound 1 µM
  IC50: 7.52 nM
Second compound 3.16 µM
  IC50: 13.3 nM
Second compound 10 µM
  IC50: 12.7 nM
Second compound 0.0316 µM, first compound 0.000999 µM
  viability, T/C: 101%
Second compound 0.0316 µM, first compound 0.00316 µM
  viability, T/C: 70.3%
Second compound 0.0316 µM, first compound 0.00999 µM
  viability, T/C: 50.2%
Second compound 0.0316 µM, first compound 0.0316 µM
  viability, T/C: 17.3%
Second compound 0.0316 µM, first compound 0.0999 µM
  viability, T/C: 6.2%
Second compound 0.0316 µM, first compound 0.316 µM
  viability, T/C: 2.76%
Second compound 0.1 µM, first compound 0.000999 µM
  viability, T/C: 95.2%
Second compound 0.1 µM, first compound 0.00316 µM
  viability, T/C: 85.8%
Second compound 0.1 µM, first compound 0.00999 µM
  viability, T/C: 57%
Second compound 0.1 µM, first compound 0.0316 µM
  viability, T/C: 13.7%
Second compound 0.1 µM, first compound 0.0999 µM
  viability, T/C: 8.95%
Second compound 0.1 µM, first compound 0.316 µM
  viability, T/C: 3.1%
Second compound 0.316 µM, first compound 0.000999 µM
  viability, T/C: 101%
Second compound 0.316 µM, first compound 0.00316 µM
  viability, T/C: 73.4%
Second compound 0.316 µM, first compound 0.00999 µM
  viability, T/C: 63.1%
Second compound 0.316 µM, first compound 0.0316 µM
  viability, T/C: 15.6%
Second compound 0.316 µM, first compound 0.0999 µM
  viability, T/C: 10%
Second compound 0.316 µM, first compound 0.316 µM
  viability, T/C: 3.09%
Second compound 1 µM, first compound 0.000999 µM
  viability, T/C: 109%
Second compound 1 µM, first compound 0.00316 µM
  viability, T/C: 69.2%
Second compound 1 µM, first compound 0.00999 µM
  viability, T/C: 42.1%
Second compound 1 µM, first compound 0.0316 µM
  viability, T/C: 28.1%
Second compound 1 µM, first compound 0.0999 µM
  viability, T/C: 9.78%
Second compound 1 µM, first compound 0.316 µM
  viability, T/C: 2.05%
Second compound 3.16 µM, first compound 0.000999 µM
  viability, T/C: 91.8%
Second compound 3.16 µM, first compound 0.00316 µM
  viability, T/C: 80.2%
Second compound 3.16 µM, first compound 0.00999 µM
  viability, T/C: 54.9%
Second compound 3.16 µM, first compound 0.0316 µM
  viability, T/C: 32.5%
Second compound 3.16 µM, first compound 0.0999 µM
  viability, T/C: 8.3%
Second compound 3.16 µM, first compound 0.316 µM
  viability, T/C: 2.04%
Second compound 10 µM, first compound 0.000999 µM
  viability, T/C: 81.3%
Second compound 10 µM, first compound 0.00316 µM
  viability, T/C: 71.1%
Second compound 10 µM, first compound 0.00999 µM
  viability, T/C: 59.7%
Second compound 10 µM, first compound 0.0316 µM
  viability, T/C: 19.4%
Second compound 10 µM, first compound 0.0999 µM
  viability, T/C: 7.8%
Second compound 10 µM, first compound 0.316 µM
  viability, T/C: 1.03%
